Laboratory results reported in patent US8454977B2, “Non-toxic biofilm inhibitor” (priority 2005, dated 2013).
Entries after “also recorded” stand apart in the source; their conditions may differ.

Assays:
[1] = test system: biotinylated viable PAKwt cells; format: cell-based, Pseudomonas aeruginosa
P. aeruginosa strain PAK = assay: Epifluorescence microscopy of cells bound to stainless steel, strain PAK; format: cell-based, Pseudomonas aeruginosa; settings: PAK(128-144)ox 51 nM; PAK(134-140) 100 μg/ml; 60 min 37° C.
Method: (§1) FIG. 2. Epifluorescence microscopy of stainless steel after binding of P. aeruginosa strains PAK (panels a, b, and c), PAO (panels d, e, and f), K122-4 (panels g, h, and i), KB7 (panels j, k, and l), PAKNP (panels m, n, and o) and PAKMS591 (panels p, q, and r). Viable cells were allowed to incubate directly (panels a, d, g, j, m, and p) with a stainless steel grade 304 surface for 60 min at 37° C. and washed 5 times with 10 mM PBS pH 7.4 containing 0.05% BSA. The cells were then stained using acrydine orange and a 40× objective field was photographed with a Leitz Laborlux microscope equipped with epifluorescent illumination and a Wild automatic exposure 35 mm camera system. Note that bound Pseudomonas cells are stained orange while green fluorescence indicates non-specific interaction of the fluorochrome with the surface. P. aeruginosa strains PAK, PAO, K122-4, KB7, PAKNP, and PAKMS591 were incubated with the synthetic peptide PAK(128-144d)ox (panels b, e, h, k, n, and q respectively) or with synthetic peptide PAK(134-140) (panels c, f, i, l, o, and r respectively).
(§2) Stainless steel plates, prepared and utilized in bacterial binding studies as described above, were incubated in 1 mM Acridine Orange stain for one minute, and thoroughly rinsed with distilled water. […] Micrographs were recorded with Kodak Colormax 35 mm film, processed and digitally scanned immediately after film processing.

P. aeruginosa strain PAO = assay: Epifluorescence microscopy of cells bound to stainless steel, strain PAO; format: cell-based, Pseudomonas aeruginosa; settings: PAK(128-144)ox 51 nM; PAK(134-140) 100 μg/ml; 60 min 37° C.
Method: as §1, §2

[2] = test system: P. aeruginosa strain K122-4; assay: Epifluorescence microscopy of cells bound to stainless steel, strain K122-4; format: cell-based, Pseudomonas aeruginosa; settings: PAK(128-144)ox 51 nM; PAK(134-140) 100 μg/ml; 60 min 37° C.
Method: as §1, §2

P. aeruginosa strain KB7 = assay: Epifluorescence microscopy of cells bound to stainless steel, strain KB7; format: cell-based, Pseudomonas aeruginosa; settings: PAK(128-144)ox 51 nM; PAK(134-140) 100 μg/ml; 60 min 37° C.
Method: as §1, §2

[3] = test system: P. aeruginosa strain PAKMS591; assay: Epifluorescence microscopy of cells bound to stainless steel, strain PAKMS591; format: cell-based, Pseudomonas aeruginosa; settings: 60 min 37° C.
Method: as §1, §2

[4] = test system: P. aeruginosa strain PAKNP; assay: Epifluorescence microscopy of cells bound to stainless steel, strain PAKNP; format: cell-based, Pseudomonas aeruginosa; settings: 60 min 37° C.
Method: as §1, §2

[5] = test system: respiratory epithelial cells; settings: Yu et al., 1996; cited from earlier work
[6] = molecular target: biotinylated purified PAK pili
Chain of biotinylated purified PAK pili (P02973 7-150): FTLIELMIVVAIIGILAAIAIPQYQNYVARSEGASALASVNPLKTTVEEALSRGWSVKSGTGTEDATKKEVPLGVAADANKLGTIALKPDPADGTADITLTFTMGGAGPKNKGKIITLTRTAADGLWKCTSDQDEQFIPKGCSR

Row | Substance | effect of peptide on binding of biotinylated PAKwt cells to stainless steel [1] | effect on binding of strain PAK to stainless steel (microscopy) (P. aeruginosa strain PAK) | effect on binding of strain PAO to stainless steel (microscopy) (P. aeruginosa strain PAO) | effect on binding of strain K122-4 to stainless steel (microscopy) [2] | effect on binding of strain KB7 to stainless steel (microscopy) (P. aeruginosa strain KB7) | effect on binding of strain PAKMS591 (fliC-) to stainless steel (microscopy) [3] | effect on binding of strain PAKNP (pilA-) to stainless steel (microscopy) [4] | affinity for epithelial cells / mucosal cell surface receptors [5] | Ki ([1]; read-out: apparent Ki of the peptide inhibition of PAKwt binding to steel) [nM] | Ki ([6]; read-out: apparent Ki of the peptide inhibition of PAK pilus binding to steel) [nM] | effect of peptide on binding of biotinylated PAK pili to stainless steel [6]
1 | Ac-D-E-Q-F-I-P-K-amide (Ac-DEQFIPK-NH2) [PAK(134-140)] | do not inhibit cell binding; also recorded: did not inhibit | did not inhibit the binding; also recorded: minimal effect | did not inhibit the binding; also recorded: minimal effect | did not inhibit the binding; also recorded: nor did it inhibit the binding; also recorded: minimal effect | did not inhibit the binding; also recorded: nor did it inhibit the binding; also recorded: minimal effect | did not inhibit the binding | did not inhibit the binding | low affinity | – | – | –
2 | Ac-KCTSDQDEQFIPKGCSK-OH (cysteine pairing not given here) [PAK(128-144)ox] | – | reduced the binding | reduced the binding; also recorded: substantially inhibits; also recorded: effectively inhibits the adherence | reduced the binding; also recorded: substantially inhibits; also recorded: effectively inhibits the adherence | reduced the binding; also recorded: substantially inhibits; also recorded: effectively inhibits the adherence | reduced the binding; also recorded: inhibited the binding | did not reduce the binding; also recorded: had no effect | – | ~4 | ~0.2 | –
3 | Ac-PQYQNYVARSEGASALASVNPLKTTVEEADP-OH [PAK(22-52)] | do not inhibit cell binding | – | – | – | – | – | – | – | – | – | do not inhibit the binding of pili
4 | Ac-T-L-T-R-T-A-A-D-G-OH (Ac-TLTRTAADG-OH) [PAK(117-125)] | appears to enhance cell binding to steel rather than inhibiting | – | – | – | – | – | – | – | – | – | appears to enhance the binding of pili to steel rather than inhibiting
